Here are results for 1 molecule from patent publication US11033567B2, “5-aza-2′-deoxycytidine and methods of use thereof for promoting wound healing and regeneration” (THE TRUSTEES OF THE UNIVERSITY OF PENNSYLVANIA, priority 2014, dated 2021).

Structures are written as SMILES. “Also recorded” adds a separate entry of the source.

For assay [1], the system named is C57B mice carrying full-thickness skin wounds. Nature of the assay: Effect of topical Aza-dC treatment on wound healing and hair follicle regeneration. Type of assay: in vivo. The settings on record: for hair follicle (HF) neogenesis compared to the vehicle control / hair follicle regeneration: topical; for hair follicle (HF) neogenesis compared to the vehicle control: once a day for 2 consecutive days (SD0 & SD1); for hair follicle regeneration: once a day for 5 consecutive days. The text has this:
Determining the Effect of Topical Aza-dC Treatment on Wound Healing and Regeneration: […]

For assay [2] the test system is unchanged. Briefly: Effect of systemic Aza-dC treatment (injection) on wound healing and hair follicle regeneration. The class given is in vivo. The source says:
Determining the Effect of Systemic Aza-dC Treatment on Wound Healing and Regeneration:
The dermis was fixed in acetone overnight.

Consider `Nc1ncn([C@H]2C[C@H](O)[C@@H](CO)O2)c(=O)n1` [Aza-dC, 5-aza-2′-deoxycytidine], for which the “inhibitory effect on wound-induced hair follicle regeneration” value in assay [1] (topical application, unlike systemic treatment) was “little inhibitory effect”. Moreover, in assay [1] (topical treatment extended to 5 days (SD0 to SD4)), the “stimulatory effect on regeneration” value was “diminished”. For the same molecule, the “hair follicle (HF) neogenesis compared to the vehicle control” value in assay [1] (all doses tested) is listed as “greatly enhanced”; in assay [1] (highest tested dose 10 μg), “strongest enhancement”. The hair follicle regeneration result was “little effect” in assay [1] (1 μg); “little effect” in assay [1] (5 μg); “still enhanced” in assay [1] (10 μg); “no effect” in assay [2] (single injection of 30 μg per gram body weight on SD0); “inhibition on hair follicle regeneration; also recorded: greatly inhibited” in assay [2] (single injection of 30 μg per gram body weight on SD1). The “regeneration of hair follicles in healed wounds” value in assay [2] (injection, 30 μg per gram body weight once a day for 5 consecutive days (SD0 to SD4)) was “greatly inhibited”.
